The values below come from PubChem BioAssay AID330 (DTP/NCI, 2004).

The subject of this assay is P388 leukemia ip, CD2F1 mice, survival T/C. Nature of the assay: NCI In Vivo Anticancer Drug Screen. Data for tumor model P388 Leukemia (intraperitoneal) in CD2F1 (CDF1) mice. Conditions: endpoint: median survival time, higher = longer survival. In a few lines: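 Mice carrying the transplanted tumor received test compound or vehicle. Survival was recorded in each group, and the value is the treated-group measurement divided by that of the vehicle-treated control group.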

Where [1] appears, read: dose: 50.0 mg/kg/injection, schedule: Q01DX005 (ip), vehicle: saline with Tween-80.
The mark [2] stands for this setting: dose: 100.0 mg/kg/injection, schedule: Q01DX005 (ip), vehicle: saline with Tween-80.
The mark [3] stands for this setting: dose: 200.0 mg/kg/injection, schedule: Q01DX005 (ip), vehicle: saline with Tween-80.
The mark [4] stands for this setting: dose: 100.0 mg/kg/injection, schedule: Q04DX003 (ip), vehicle: saline.
The mark [5] stands for this setting: dose: 200.0 mg/kg/injection, schedule: Q04DX003 (ip), vehicle: saline.
Setting [6] is: dose: 400.0 mg/kg/injection, schedule: Q04DX003 (ip), vehicle: saline.
The mark [7] stands for this setting: dose: 25.0 mg/kg/injection, schedule: Q01DX009 (ip), vehicle: saline with Tween-80.
[8] abbreviates: dose: 50.0 mg/kg/injection, schedule: Q01DX009 (ip), vehicle: saline with Tween-80.
The mark [9] stands for this setting: dose: 50.0 mg/kg/injection, schedule: Q01DX009 (ip), vehicle: saline.
Setting [10] is: dose: 100.0 mg/kg/injection, schedule: Q01DX009 (ip), vehicle: saline.
Where [11] appears, read: dose: 200.0 mg/kg/injection, schedule: Q01DX009 (ip), vehicle: saline.

The structures appear in SMILES notation. Several values for one entry are separate records, joined by “and”; a condition that tells them apart may be missing. Equal values may be shown once. Inconclusive results and toxic doses are left out.

For `Cc1nn(C(=S)S)c(C)c1N=Nc1ccc(Cl)cc1Cl`, the T/C is 100 % of control under setting [1], 96 % of control under setting [2] and 102 % of control under setting [3].

As for `N#CC(C=C(c1ccccc1)c1ccccc1)c1ccccc1` (configuration not stated), the T/C under setting [4] was 98 % of control, the T/C under setting [5] was 98 % of control and the T/C under setting [6] was 96 % of control.

Consider `C=CCNC(=S)N/N=C/c1nccc(-c2ccccc2)c1C`, for which the T/C under setting [7] is 112 % of control and the T/C under setting [8] was 86 % of control.

As for `CC1(C)CC(=O)C=C(NCCCCNC2=CC(=O)CC(C)(C)C2)C1`, the T/C (dose: 50.0 mg/kg/injection, schedule: Q01DX009 (ip), vehicle: Klucel (hydroxypropylcellulose) (HPC)) is 95 % of control; the T/C (dose: 100.0 mg/kg/injection, schedule: Q01DX009 (ip), vehicle: Klucel (hydroxypropylcellulose) (HPC)) was 95 % of control; the T/C (dose: 200.0 mg/kg/injection, schedule: Q01DX009 (ip), vehicle: Klucel (hydroxypropylcellulose) (HPC)) is 95 % of control.

As to `CC1(c2ccc(Cl)cc2)NC(=O)N(CN2CCCCC2)C1=O` (configuration not stated), the T/C was 100 % of control (dose: 12.5 mg/kg/injection, schedule: Q01DX009 (ip), vehicle: saline with Tween-80); 100 % of control under setting [7]; 100 % of control under setting [8]; 100 % of control (dose: 50.0 mg/kg/injection, schedule: Q04DX003 (ip), vehicle: saline sonified); 107 % of control (dose: 100.0 mg/kg/injection, schedule: Q04DX003 (ip), vehicle: saline sonified); 100 % of control (dose: 200.0 mg/kg/injection, schedule: Q04DX003 (ip), vehicle: saline sonified).

Take `O=C(NCCCCCCNC(=O)OCOC(=O)NCCCCCCNC(=O)Nc1ccc(SCCO)cc1)Nc1ccc(SCCO)cc1`: the T/C is 102 % of control under setting [4], 102 % of control under setting [5] and 99 % of control under setting [6].

As for `CCC(C)C(NC(=O)CCl)C(=O)O` (configuration not stated), the T/C is 99 % of control under setting [9], 96 % of control under setting [10] and 101 % of control under setting [11].

For the compound `Cc1cc(Br)c(O)c(C(=NCC(C)N=C(c2ccccc2)c2cc(C)cc(Br)c2O)c2ccccc2)c1` (configuration not stated), the T/C by setting is: (dose: 25.0 mg/kg/injection, schedule: Q01DX005 (ip), vehicle: Klucel (hydroxypropylcellulose) (HPC)) 100 % of control; (dose: 50.0 mg/kg/injection, schedule: Q01DX005 (ip), vehicle: Klucel (hydroxypropylcellulose) (HPC)) 96 % of control; (dose: 100.0 mg/kg/injection, schedule: Q01DX005 (ip), vehicle: Klucel (hydroxypropylcellulose) (HPC)) 100 % of control; (dose: 200.0 mg/kg/injection, schedule: Q01DX005 (ip), vehicle: Klucel (hydroxypropylcellulose) (HPC)) 96 % of control.

With `O=[N+]([O-])c1ccc(NC(c2ccccc2)S(=O)(=O)O)cc1` (configuration not stated), the T/C was 119 % of control under setting [9], 109 % of control under setting [10] and 123 % of control under setting [11].

`CC(C)(CO)N(CCO)CCO`: the T/C by setting is: (dose: 50.0 mg/kg/injection, schedule: Q01DX005 (ip), vehicle: saline) 106 % of control; (dose: 100.0 mg/kg/injection, schedule: Q01DX005 (ip), vehicle: saline) 106 % of control; (dose: 200.0 mg/kg/injection, schedule: Q01DX005 (ip), vehicle: saline) 106 % of control.

As for `CC(C)CC(NCc1ccccc1)C(=O)O` (configuration not stated), the T/C is 95 % of control under setting [1], 100 % of control under setting [2] and 95 % of control under setting [3].

On to `COC(=O)CN1C(=O)c2cccc3cc([N+](=O)[O-])cc(c23)C1=O`, for which the T/C runs as follows: (dose: 60.0 mg/kg/injection, schedule: Q01DX005 (ip), vehicle: saline with Tween-80) 100 % of control; (dose: 120.0 mg/kg/injection, schedule: Q01DX005 (ip), vehicle: saline with Tween-80) 98 % of control; (dose: 240.0 mg/kg/injection, schedule: Q01DX005 (ip), vehicle: saline with Tween-80) 90 % of control.

As to `O=C(O)c1cc2cccc(OCc3ccc(Cl)cc3Cl)c2cc1O`, the T/C (dose: 100.0 mg/kg/injection, schedule: Q04DX002 (ip), vehicle: Klucel (hydroxypropylcellulose) (HPC)) was 115 % of control; the T/C (dose: 200.0 mg/kg/injection, schedule: Q04DX002 (ip), vehicle: Klucel (hydroxypropylcellulose) (HPC)) was 106 % of control; the T/C (dose: 400.0 mg/kg/injection, schedule: Q04DX002 (ip), vehicle: Klucel (hydroxypropylcellulose) (HPC)) is 103 % of control.

In the case of `CC1CN=C(c2ccc(NC(=O)c3cccc(C(=O)Nc4ccc(C5=NCC(C)N5)cc4)c3)cc2)N1` (configuration not stated), the T/C by setting is: (dose: 12.0 mg/kg/injection, schedule: Q01DX010 (ip), vehicle: saline) 118 % of control; (dose: 18.0 mg/kg/injection, schedule: Q01DX010 (ip), vehicle: saline) 154 % of control; (dose: 27.0 mg/kg/injection, schedule: Q01DX010 (ip), vehicle: saline) 159 % of control; (dose: 40.0 mg/kg/injection, schedule: Q01DX010 (ip), vehicle: saline) 172 % of control.

`CSC(=S)N/N=C\C(O)C(O)C(O)C(O)CO` (configuration not stated): the T/C is 104 % of control (dose: 6.25 mg/kg/injection, schedule: Q04DX003 (ip), vehicle: saline); 109 % of control (dose: 12.5 mg/kg/injection, schedule: Q04DX003 (ip), vehicle: saline); 102 % of control (dose: 25.0 mg/kg/injection, schedule: Q04DX003 (ip), vehicle: saline).

Turning to `OCC1OC(n2cnc3c(NO)nc(NO)nc32)C(O)C1O` (configuration not stated), the T/C is, setting by setting: (dose: 2.25 mg/kg/injection, schedule: Q01DX009 (ip), vehicle: saline) 100 % of control; (dose: 4.5 mg/kg/injection, schedule: Q01DX009 (ip), vehicle: saline) 114 % of control; (dose: 14.3 mg/kg/injection, schedule: Q01DX009 (ip), vehicle: saline) 107 % of control; (dose: 18.0 mg/kg/injection, schedule: Q01DX009 (ip), vehicle: saline) 114 % of control; (dose: 54.0 mg/kg/injection, schedule: Q01DX009 (ip), vehicle: saline) 184 % of control.

Regarding `CCN(CC)CCOc1ccc(C2=C(c3ccccc3)CCc3cc(OC)ccc32)cc1`, the T/C was 100 % of control (dose: 100.0 mg/kg/injection, schedule: Q04DX003 (ip), vehicle: saline with Tween-80) and 104 % of control (dose: 200.0 mg/kg/injection, schedule: Q04DX003 (ip), vehicle: saline with Tween-80).

For the compound `CCOC(=O)C1=C(c2ccco2)NN=C(c2ccccc2)C1`, the T/C is 101 % of control under setting [1], 103 % of control under setting [2] and 94 % of control under setting [3].

`CC1(C)OCC2OCOC(C3CC(=O)NC(=O)C3)C2O1` (configuration not stated): the T/C is 102 % of control (dose: 100.0 mg/kg/injection, schedule: Q04DX002 (ip), vehicle: suspension in saline); 100 % of control (dose: 200.0 mg/kg/injection, schedule: Q04DX002 (ip), vehicle: suspension in saline); 102 % of control (dose: 400.0 mg/kg/injection, schedule: Q04DX002 (ip), vehicle: suspension in saline).

For `Cc1cc(OC(=O)Nc2ccc(C)c([N+](=O)[O-])c2)c(Br)cc1Cl`, the T/C is 100 % of control (dose: 12.5 mg/kg/injection, schedule: Q01DX009 (ip), vehicle: saline); 93 % of control (dose: 25.0 mg/kg/injection, schedule: Q01DX009 (ip), vehicle: saline); 96 % of control (dose: 50.0 mg/kg/injection, schedule: Q01DX009 (ip), vehicle: saline + alcohol); 100 % of control under setting [9]; 99 % of control (dose: 100.0 mg/kg/injection, schedule: Q01DX009 (ip), vehicle: saline + alcohol).

Consider `CCC1(O)CC2CN(CCc3c([nH]c4ccccc34)C(C(=O)OC)(c3cc4c(cc3OC)N(C)C3C(O)(C(=O)OC)CC5(CC)C=CCN6CCC43C65)C2)C1` (configuration not stated), for which the T/C (dose: 1.0 mg/kg/injection, schedule: Q01DX001 (ip), vehicle: saline) is 120 % of control and 122 % of control; the T/C (dose: 4.0 mg/kg/injection, schedule: Q01DX001 (ip), vehicle: saline) was 150 % of control; the T/C (dose: 8.0 mg/kg/injection, schedule: Q01DX001 (ip), vehicle: saline) is 155 % of control; the T/C (dose: 16.0 mg/kg/injection, schedule: Q01DX001 (ip), vehicle: saline) was 165 % of control and 175 % of control; the T/C (dose: 32.0 mg/kg/injection, schedule: Q01DX001 (ip), vehicle: saline) is 195 % of control and 205 % of control.
